Test results published in EP1279727A1, “TRANSFORMATION AND MODIFICATION OF NATURAL DRUG BY INTESTINAL PROBIOTIC FERMENTATIVE CULTURE” (Wu, Bingxin, priority 2000, dated 2002).
Read-outs that look alike come from different tables or passages of the source.

How the values were obtained:
H22 hepatocarcinoma [1] = assay type: in vivo; settings: H22 mouse, single therapy (subgroup 2 preparation alone; subgroup 3 5-Fu 15 mg/kg alone), 7 days
Method: 1. […] The resultant model mouse is grouped randomly into eight groups.
Each mouse in first four groups is treated for observing effect of the present natural medicine preparation on the efficiency of anti-cancer chemical agent, fliorouracil (5-Fu, 15 mg/kg), mice in the rest four groups is for the effect of the present compositions on the efficiency of radiotherapy for cancer (^60Co irradiation on whole body, 4.5 Gray /day/animal).
The combination therapy to both animal groups (4 subgroups in each group) starts from the next day of grafting tumor cells and continues for 7 days.
The synergetic effect of the present composition on chemical therapy or radiotherapy for cancer is calculated by the inhibition rate according to the following Burgi's correction equation: Q= E (A+B)/EA+EB-EAxEB [formula] wherein, E (A+B) is the cancer inhibition rate of the combined therapy, EA and EB are the cancer inhibition rate of the present composition administration, or the chemical therapy (or radiotherapy) alone.
Result: (1) If Q calculated is lower than 0.85, it is considered as an antergenic effect between combined therapy; (2) if Q is between 0.85 and 1.15, it is considered as an addictive effect; and (3) if Q is above 1.15, then it is deemed as synergetic effect between combined therapy. The particular results are listed in table 3 and table 4, respectively.

S180 sacoma = settings: S180 mouse, positive control CTX subcutaneously
Method: (§1) Using species Kunming mouse subcutaneously grafted S180 sacoma or H22 hepatocarcinoma as cancer-harboring model animal, the inhibition activity on growth of cancer is observed with respect to extract of anti-cancer natural medicines which converted or unconverted by the above intestinal probiotics in either large dose or small dose.
(§2) For this purpose, 120 mice weighed from about 18-25g are grafted subcutaneously at right axilla with 1 x 10^7 cells/ml of S180 sacoma or H22 hepatocarcinoma (0.2ml/mouse) in order to obtain solid tumor model animal. The resultant model animal is grouped randomly into 12 groups. Each animal in treatment group is orally administrated with unfermented (in 1:1 dilution) or fermented (in 1:4 dilution) extract of natural medicines daily.
(§3) The administration of extract of natural medicine starts at the forth day from the date grafting cancer cells, i.e., the time when solid tumor can be touched by hand. After continuously administration over 10 days, the weight of animal and solid tumor are measured, respectively, and then inhibition rate of cancer can be calculated accordingly. The treatment experiments on the two types of cancer are carried out in triplicate.

H22 hepatocarcinoma [2] = settings: H22 mouse, positive control CTX subcutaneously
Method: as §1, §2, §3

| Structure (SMILES) | inhibition rate (H22 hepatocarcinoma [1]) [%] | tumor weight (X±SD) (H22 hepatocarcinoma [1]) | animal weight before ad. (S180 sacoma) | animal weight after ad. (S180 sacoma; after 10 days) | inhibition rate (S180 sacoma; after 10 days) [%] | solid tumor weight (X±SD) (S180 sacoma; after 10 days) | animal weight before ad. (H22 hepatocarcinoma [2]) | animal weight after ad. (H22 hepatocarcinoma [2]; after 10 days) | inhibition rate (H22 hepatocarcinoma [2]; after 10 days) [%] | solid tumor weight (X±SD) (H22 hepatocarcinoma [2]; after 10 days) |
| --- | --- | --- | --- | --- | --- | --- | --- | --- | --- | --- |
| O=c1[nH]cc(F)c(=O)[nH]1 [5-Fu, fliorouracil] | 56.7 | 1.06±0.31 |  |  |  |  |  |  |  |  |
| O=P1(N(CCCl)CCCl)NCCCO1 (stereo not shown) [positive control, cyclophosphamide] |  |  | 20.1 | 21.2 | 61.0 | 0.55±0.19 | 21.2 | 27.9 | 62.4 | 0.72±0.36 |
